# Measured values taken from US6903052B2, “Nematicidal compositions and methods” (Divergence, Inc., priority 2002, dated 2005).
# Columns and labels:
# C. elegans [1] = experiment: Rescue of C. elegans delta-12 FAT RNAi feeding phenotype by fatty acid methyl esters; format: cell-based, Caenorhabditis elegans; conditions: 3 mM added to the NGM media
# Description: RNAi by feeding: C. elegans can be grown on lawns of E. coli genetically engineered to produce double stranded RNA (dsRNA) designed to inhibit delta-12 fat-2 expression. Briefly, E. coli were transformed with a genomic fragment of a portion of the C. elegans fat-2 gene sequence, specifically a fragment 651 nucleotides long, containing the entire first exon and terminating just before the conserved intron splice junction between the first exon and first intron. This construct encodes approximately the first 217 amino acids of the C. elegans delta-12 FAT gene. The 651 nucleotide genomic fragment was cloned into an E. coli expression vector between opposing T7 polymerase promoters. The clone was then transformed into a strain of E. coli that carries an IPTG-inducible T7 polymerase. As a control, E. coli was transformed with a gene encoding the Green Fluorescent Protein (GFP). Feeding RNAi was initiated from C. elegans eggs or from C. elegans […]. […] When feeding RNAi was started from C. elegans L4 larvae at 23° C. on NGM plates containing IPTG and E. coli expressing the C. elegans […] […] The sequence of the fat-2 gene is of sufficiently high complexity (i.e., unique) such that the RNAi is not likely to represent cross reactivity with other genes. […]
# C. elegans [2] = experiment: Nematicidal activity of single fatty acid methyl ester emulsions against Caenorhabditis elegans (Example 4); format: cell-based
# Method: Mixed stage Caenorhabditis elegans were washed off plates seeded with OP50 bacteria using M9 solution. 250 μl of the M9 solution, which contained about 50 worms, was pipetted into each well of a 24-well plate.
# (§1) Fatty acid methyl ester emulsions were prepared following the teachings of Kim et al (U.S. Pat. No. 5,698,592). Briefly, 1 ml 1% stock solution emulsions were prepared by mixing 10 μl of fatty acid methyl ester with 20 μl of the surfactant Igepal CO 630 in a 1.5 ml eppendorf tube. After careful mixing of fatty acid and Igepal CO 630, 850 μl of ddH20 was added and mixed by gentle pipetting until a homogeneous solution was obtained. Finally, 120 μl of pure isopropanol was added and mixed by gentle pipetting. This stock solution was then used to produce various fatty acid methyl ester dilution emulsions in 24-well plate assays.
# To each well, fatty acid emulsions or control emulsions were added and rapidly mixed by swirling. Nematode viability was scored by visual observation and motility assays at various time points 24 hours following addition of emulsions or controls. The fatty acid emulsions tested were methyl esters of nonanoic (pelargonic) acid, ricinoleic acid, vernolic acid, linoleic acid, oleic acid, and control emulsions lacking fatty acids.
# M. javanica = experiment: Nematicidal activity of fatty acid methyl ester emulsions against root knot nematode J2 larvae (Example 6); format: cell-based, Meloidogyne javanica; conditions: 0.1% emulsion; 48 hours incubation, counted about 24 hours after transfer to plates
# Method: as §1
# (§2) Meloidogyne incognita and javanica were prepared from tomato roots. The roots were bleached and the debris was separated from the J2 larvae and eggs by filtration followed by sucrose density gradient centrifugation. Eggs were hatched over 4 days at 15° C. and the J2 larvae were collected by passage though a filter, followed by centrifugation.
# (§3) Nematodes and emulsions were incubated with shaking at room temperature for 48 hours. The contents of each well were transferred to a small spot on individual NGM plates lacking bacteria. About 24 hours after the transfer to plates, worms on and off the inoculation spot were counted as not viable or viable, respectively. Worms were considered viable if they had crawled away from the inoculation spot, or if they were moving. Worms were considered non-viable if they remained at the inoculation spot.
# M. incognita = experiment: as above; format: cell-based, Meloidogyne incognita; conditions: 0.1% emulsion; 48 hours incubation, counted about 24 hours after transfer to plates
# Method: as §1, §2, §3
# tomato seedlings = experiment: Phytotoxicity evaluation on tomato seedlings; format: in vivo; conditions: 250 μl of 1% emulsion applied to stem-media interface of two-week seedlings
# Method: Sterilized tomato seeds were germinated in magenta jars containing Gamborg's agar media. After two weeks of growth, seedlings were treated with 250 μl of 1% fatty acid methyl ester emulsion (nonanoic acid, ricinoleic acid, ricinelaidic acid, oleic acid, or a control emulsion lacking any fatty acid), applied directly to the stem-media interface. Tomato seedlings were scored at various times after application of emulsions.
# C. elegans [3] = experiment: Nematicidal activity of fatty acid methyl ester emulsions, spectrum (Example 8); format: cell-based, Caenorhabditis elegans; conditions: C. elegans mixed stage
# Method: (§4) Briefly, the indicated fatty acid emulsions were added and rapidly mixed by swirling. Nematode viability was scored by visual observation and motility assays 24 hours following addition of emulsions (48 hours for plant parasitic nematodes Meloidogyne and Heterodera species). The fatty acid emulsions tested were methyl esters of nonanoic (pelargonic) acid, ricinelaidic acid, ricinoleic acid, vernolic acid, linoleic acid, and oleic acid. […] Results shown are mean % values obtained from multiple independent experiments
# (§5) The Caenorhabiditis elegans were mixed stage populations. Similar effects seen on several other free-living nematode species. The Parastrongyloides trichosuri (parasite of Australian bushtail possum) were dauer-like infective 3rd stage larva. Similar effects are also seen against free-living stages. The Meloidogyne incognita and Meloidogyne javanica (root knot nematode) were 2nd stage juveniles (dauer-like infective stage). The Heterodera glycines (soybean cyst nematode) were 2nd stage juveniles (dauer-like infective stage). Finally, the Pratylenchus scribneri (corn lesion nematode) were mixed stage populations.
# P. trichosuri = experiment: as above; format: cell-based, Parastrongyloides trichosuri; conditions: P. trichosuri infective 3rd stage larva
# Method: as §4, §5
# H. glycines = experiment: as above; format: cell-based, Heterodera glycines; conditions: H. glycines 2nd stage juveniles, scored at 48 hours
# Method: as §4, §5
# P. scribneri = experiment: as above; format: cell-based, Pratylenchus scribneri; conditions: P. scribneri mixed stage
# Method: as §4, §5
# B. malayi = experiment: Nematicidal activity of tween-based emulsions against microfilarial nematodes; format: cell-based, Brugia malayi
# Method: To each well, tween-based fatty acid emulsions were added and rapidly mixed by swirling. Nematode microfilaria viability was scored by visual observation of motility at 24 and 48 hours following addition of emulsions. The fatty acid emulsions tested were methyl esters of ricinoleic acid, vernolic acid, ricinelaidic acid, oleic acid, and control emulsions lacking fatty acids. The results of this study are presented in Table 7 as the percentage of non-motile microfilaria 24 hours after inoculation and in Table 8 as the percentage of non-motile microfilaria 48 hours after inoculation
# [4] = system: everted hamster jejunal and ileal segments; conditions: Gaginella et al. (1975); cited from earlier work
# [5] = system: isolated intestinal epithelial cells; conditions: Gaginella et al. (1977); cited from earlier work
smiles,measurement,setting,value
"CCCCCCCC/C=C\CCCCCCCC(=O)OC [Oleic Acid (C18-methyl ester), oleic acid methyl ester, reference compound]",Rescue of the delta-12 FAT RNAi feeding phenotype,C. elegans [1],does not rescue
same,Percentage of Worm Death,"C. elegans [2]; 0.003% emulsion, 1 hr",0-5%
same,Percentage of Worm Death,"C. elegans [2]; 0.003% emulsion, 6 hr",0-5%
same,Percentage of Worm Death,"C. elegans [2]; 0.003% emulsion, 24 hr",0-5%
same,Percentage of Worm Death,"C. elegans [2]; 0.1% emulsion, 1 hr",0-5%
same,Percentage of Worm Death,"C. elegans [2]; 0.1% emulsion, 6 hr",0-5%
same,Percentage of Worm Death,"C. elegans [2]; 0.1% emulsion, 24 hr",0-5%
same,M. javanica (% not viable),M. javanica,20%
same,M. incognita (% not viable),M. incognita,25%
same,Visible effects on tomato seedlings,tomato seedlings,none of the tomatoes treated with the other fatty acid methyl ester emulsions showed visible effects
same,% Worm Death (24 hr),C. elegans [3]; 0.01% solution,<10%
same,% Worm Death (24 hr),C. elegans [3]; 0.1% solution,<10%
same,% Worm Death (24 hr),P. trichosuri; 0.01% solution,˜10%
same,% Worm Death (24 hr),P. trichosuri; 0.1% solution,˜10%
same,% Worm Death (24 hr),H. glycines; 0.001% solution,<10%
same,% Worm Death (24 hr),H. glycines; 0.01% solution,<10%
same,% Worm Death (24 hr),H. glycines; 0.1% solution,<10%
same,% Worm Death (24 hr),P. scribneri; 0.01% solution,<20%
same,% Worm Death (24 hr),P. scribneri; 0.1% solution,<20%
same,percentage of non-motile microfilaria,"B. malayi; 24 hrs post-inoculation, 0.0008%",0%
same,percentage of non-motile microfilaria,"B. malayi; 24 hrs post-inoculation, 0.0016%",0%
same,percentage of non-motile microfilaria,"B. malayi; 24 hrs post-inoculation, 0.003%",0%
same,percentage of non-motile microfilaria,"B. malayi; 24 hrs post-inoculation, 0.005%",0%
same,percentage of non-motile microfilaria,"B. malayi; 24 hrs post-inoculation, 0.0067%",0%
same,percentage of non-motile microfilaria,"B. malayi; 24 hrs post-inoculation, 0.008%",0%
same,percentage of non-motile microfilaria,"B. malayi; 48 hrs post-inoculation, 0.0008%",0%
same,percentage of non-motile microfilaria,"B. malayi; 48 hrs post-inoculation, 0.0016%",0%
same,percentage of non-motile microfilaria,"B. malayi; 48 hrs post-inoculation, 0.003%",0%
same,percentage of non-motile microfilaria,"B. malayi; 48 hrs post-inoculation, 0.005%",0%
same,percentage of non-motile microfilaria,"B. malayi; 48 hrs post-inoculation, 0.0067%",0%
same,percentage of non-motile microfilaria,"B. malayi; 48 hrs post-inoculation, 0.008%",0%
"CCCCCC[C@@H](O)C/C=C\CCCCCCCC(=O)O [Ricinoleic acid, reference compound]",Effect on water (and electrolyte) absorption,[4],inhibitory effect on water and electrolyte absorption
same,Cytotoxicity,[5],cytotoxic
